{"source": "patent US5441983A", "about": "“Treatment of infection by enveloped virus with calix(N)arene compounds” (Genelabs Incorporated, priority 1992, dated 1995)", "key": {"[1]": {"system": "Influenza A (Taiwan)", "assay": "Inhibition of influenza A cytopathic effect (clumping) in MDCK cells", "format": "cell-based, Influenza A virus (A/Taiwan strain)", "details": "Influenza A virus, 24 h, 50% reduction in percent clumped cells, read-out: ED50 Influenza A (Taiwan)", "method": "With virus infection, a cytopathic effect characterized by cell clumping is observed. For each compound tested, drug concentrations of 0.1, 1, 10, 25, and 100 μg/ml were added to cultured cells at the time of virus infection, as detailed in Examples 9 and 11. […] The inhibition of clumping was plotted as a function of drug concentration, to determine the dose effective to produce a 50% reduction in the percent clumped cells, measured with respect to control (no drug treatment).\nAssays to assess the antiviral activity of KY- and Y-compounds in tissue culture were performed in 96-well flat-bottom tissue culture plates (Falcon 307), using conditions similar to those used in the cytotoxicity assays described above. In these assays, compound was tested in quadruplicate by serially diluting the compound in 2% FCS-MEM using serial two-fold dilutions (0.05 ml/well). A 0.05 ml volume of the appropriate virus containing approximately 100 median tissue culture infectious doses (TCID50) was then added to all wells except those set aside as antiviral and tissue control wells. Next, approximately 3×10^3 HEp2 cells (0.1 ml) were added to each well. Control wells containing antiviral and no virus (antiviral control), containing virus but no antiviral (virus control), or containing medium without virus or antiviral (tissue control), were included in each test. The challenge virus was then back titrated. All assay plates were incubated at 35° C. for 5 to 7 days in a 5% CO2 incubator.\nThe anti-influenza A activity of KY compounds was evaluated as described in Example 9, except that MDCK cells (kidney cell line) was used for infection in vitro by influenza virus (strain A/Taiwan)."}, "[2]": {"system": "HSV-1 KOS(PMEA)'", "assay": "Inhibition of viral yield, drug-resistant HSV-1 KOS(PMEA)'", "details": "Human alphaherpesvirus 1, HeLa, read-out: ID90", "protocol": "These compounds tested were the nucleoside analogs acyclovir (ACV), ganciclovir (DHPG), phosphonoformate (PFA), and phosphomethoxyethyladenine (PMEA). Inhibition of viral yield was determined, as above, by infecting Hela cells in the presence of wild type or drug-resistant strains of HSV-1 or HSV-2, and serial dilutions of a selected anti-viral compound, and infecting Vero cells with serial dilutions of the Hela cell lysate, as above.\nThe KOS (HSV-1) and 333 (HSV-2) are wild type viruses; the KOS(PMEA)' and KOS(PFA)' are drug-resistant HSV-1 strains having a DNA polymerase mutation. The 333(DHPG) strain is a drug-resistantHSV-2 strain having a thymidine kinase mutation.\nThe following strains of HSV-1 and HSV-2 virus were used: KOS, a wild type HSV-1 virus; KOS (PMEA) and KOS (PFA), both drug-resistant HSV-1 viruses having a DNA polymerase mutation; 333, a wild type HSV-2 HSV-2 virus, and 333 (DHPG), a drug-resistant HSV-2 virus having a thymidine kinase mutation.\nAfter growth at 37° C. for 24 hours in 2 ml of RPMI-1640 containing 2% FCS and penicillin and streptomycin (P/S), the cells were frozen at -70° C. until the time for titration. The cells were freeze/thawed 3 times to release virus from the cells, serially diluted 10 fold, and the serial dilutions were added to Vero cells in culture. After 2 hours incubation at 37° C. the virus was removed and 0.5 ml methycellulose (4K cps) in RPMI-1640 and 2% FCS+P/S was added. Two days later, the medium was removed. The cells were stained in 0.8% crystal violet in 50% ethanol. The plaques formed were counted and the titer was calculated from the fold of dilutions. From the drug dose response, the concentration of each drug required to effect a 90% inhibition of virus yield, the IC90 concentration was determined."}, "[3]": {"system": "HSV-2", "assay": "Plaque reduction assay, HSV-2, Vero cells", "format": "cell-based, HSV-2 (333)", "details": "Human alphaherpesvirus 2, Vero"}, "[4]": {"system": "HSV-2", "assay": "Topical treatment of genital HSV-2 infection, guinea pigs, second study", "details": "for % Animals with Lesions / Lesion Score (AUC) / Mean Peak lesion score: 24 h", "protocol": "In another study using the guinea pig genital model described above, animals were infected with HSV-2, then treated with KY-1 or Y-1 topically at concentrations of 2% or 5% drug. […] Animals were treated and scored daily for severity of infection for 19 days.\nThe MS strain of HSV-2 was utilized for the experimental animal infection. Female Hartley strain guinea pigs (Charles River Breeding Laboratories, Kingston, NY) weighing 250-300 g were inoculated intravaginally with 2.0×10^5 plaque-forming units of HSV-2 one hour after being swabbed for removal of vaginal secretions.\nFormulations of KY-1 or Y-1 were prepared by dissolving the compound in a 1.5% methyl cellulose solution such that final concentration of compound was 2% or 5% (wt/wt). Control animals were given either no treatment (N=10 animals) or treatment with placebo (1.5% methylcellulose solution).\nTo determine the effect of therapy on the development and spread of external genital lesions, lesion severity was scored on a 0-5+ scale through the primary infection period (19-21 days). Lesion score-day areas and virus titer-day areas under the curve, and peak lesion scores and peak virus titers between untreated and placebo-treated or placebo-treated and drug-treated animals were compared using the Mann-Whitney U range sum test. A p-value of 0.05 or less was considered significant.\nAnimals were scored daily for 19 days following inoculation for presence of lesions and severity of lesions (on a 0-5+ point scale). Lesion scores were tabulated as area under the curve of daily lesion score vs. time (days) and peak lesion score observed. A known antiviral agent, acyclovir (ACV) was administered in a 5% formulation to 8 animals as a positive control in the study."}}, "data": [{"smiles": "O=S(=O)(O)c1cc2cc(S(=O)(=O)O)c3c(O)c2c(O)c1Cc1c(S(=O)(=O)O)cc2cc(S(=O)(=O)O)c(c(O)c2c1O)Cc1c(S(=O)(=O)O)cc2cc(S(=O)(=O)O)c(c(O)c2c1O)Cc1c(S(=O)(=O)O)cc2cc(S(=O)(=O)O)c(c(O)c2c1O)C3", "note": "[KY-1]", "values": [{"measurement": "EC50", "setting": "[1]", "value": "> 188", "unit": "µg/mL"}, {"measurement": "IC90", "setting": "[2]", "value": 2.6, "unit": "µg/mL"}, {"measurement": "IC50", "setting": "[3]", "value": 1.7, "unit": "µg/mL"}, {"measurement": "% Animals with Lesions", "setting": "[4]; 2%", "value": 70, "unit": "%"}, {"measurement": "Lesion Score (AUC)", "setting": "[4]; 2%", "value": 16.2}, {"measurement": "Mean Peak lesion score", "setting": "[4]; 2%", "value": 2.2}, {"measurement": "% Animals with Lesions", "setting": "[4]; 6%", "value": 50, "unit": "%"}, {"measurement": "Lesion Score (AUC)", "setting": "[4]; 6%", "value": 17.5}, {"measurement": "Mean Peak lesion score", "setting": "[4]; 6%", "value": 1.7}, {"measurement": "lesions, in words", "setting": "[4]; 24 hours post-infection, 6% KY-1 or Y-1, 2% KY-1", "value": "reduced numbers of lesion bearing animals and reduced severity of lesions"}]}]}
